Reference: patent publication US20150004110A1, “NOVEL ANTI-AGING AND DEPIGMENTING COSMETIC COMPOSITIONS” (DIVERCHIM, priority 2011, published 2015)
Read-outs that look alike come from different tables or passages of the source.

How the values were obtained:
[1] = test system: B16 melanocytes stimulated with NDP-MSH; test: Anti-melanogenesis activity: melanin synthesis in B16 melanocytes stimulated with NDP-MSH; type: cell-based
Procedure: The depigmenting effect was evaluated on a line of type B16 melanocytes stimulated with NDP-MSH, (natural hormone stimulating melanogenesis; Melanocyte Stimulating Hormone, [Nle, DPhe]-α-MSH). Melanin synthesis was evaluated.
The anti-melanogenesis activity of the compounds in solution in DMSO was evaluated by measuring melanin synthesis in a model of B16 melanocytes stimulated with a stable derivative of α-MSH (natural melanogenesis stimulating hormone): NDP-MSH.
(§1) The melanocytes were seeded in a 96-well plate and were cultured for 24 h (37° C., 5% CO2, DMEM 1 g/L glucose without phenol red supplemented with glucose at 3 g/L, L-glutamine at 2 mM, penicillin at 50 U/mL, streptomycin at 50 μg/mL, foetal calf serum (FCS) at 10%). After incubation, the culture medium was then replaced with culture medium supplemented or not supplemented (unstimulated control) with a stable derivative of α-MSH and containing or not containing (controls) the test compounds or the reference (kojic acid at 25, 100, 400, 800 μg/mL). Each experiment was carried out with n=3, apart from the controls carried out with n=6, then the cells were incubated for 72 h. Wells without cells received in parallel the same quantities of medium supplemented or not supplemented with NDP-MSH and containing or not containing the test compounds or the reference in order to quantify the background noise associated with the presence of the compounds.
After incubation for 72 hours, the total melanin (intra- and extracellular) was quantified by measuring the absorption at 405 nm of each sample (direct reading of the culture plates) against a standard range of melanin (melanin concentrations tested from 0.78 to 100 μg/mL). The background noise, measured in the wells without cells, was subtracted from the measured values so as only to take into account the effect connected with melanin production, without taking into account the possible interference connected with the presence of the compounds. The results were expressed as percentage of melanin relative to the control as well as percentage inhibition.
The operating conditions are the same as in Example 12.

collagen I = test: Staining and immunolabelling of skin explant sections: collagen I; type: cell-based, human; conditions: treated skin explant sections
Procedure: 1. Preparation of the explants • During abdominoplasty of a person, 45 skin explants were prepared. The explants were put in BEM medium (BIO-EC's Explants Medium) for survival at 37° C. in humid atmosphere, enriched with 5% CO2.
2. Application of the products • The solutions are prepared in DMSO from pure products, in order to obtain final concentrations of […] by incorporating an identical volume of 10 μl in each well and for each treatment. The treatment was carried out in the survival medium on days 0, 1, 2, 5 and 7.
3. Taking samples • On D0, the 3 explants of batch TO were taken and each explant was cut in two. One part was fixed in buffered formol for observation of the general morphology. The other was frozen and stored at −80° C. • On D5 and D9, 3 explants from each batch were taken and treated in the same way.
4. Histological treatment • After fixation for 48 hours in buffered formol, the samples were dehydrated and embedded in paraffin using a Leica 1020 automatic dehydrator. They were embedded according to procedure MO-H-153 using a Leica EG 1160 coating station. Sections of 5 μm were prepared according to procedure MO-H-173 using a Minot-type microtome, Leica RM 2125 and mounted on Superfrost® histological glass slides.
6. Staining and immunolabelling
Immunolabelling will be carried out on sections with the appropriate antibody. […]

B16 melanocytes = test: Cell viability, MTT reduction test; type: cell-based
Procedure: as §1, with “compounds. At the end of the treatment, the cells were incubated in the presence of MTT (tetrazolium salt), the transformation of which to blue crystals of formazan is proportional to the activity of succinate dehydrogenase (mitochondrial enzyme). After dissociation of the cells, the formazan was dissolved in DMSO medium and the optical density (OD), representative of the number of living cells and of their metabolic reactivity, was measured with a microplate reader at 540 nm (VERSAmax, Molecular Devices). The operating conditions are the same as in Example 12.” for “compounds.”

Transglutaminase K, TGK = test: In situ immunolabelling of TGK in keratinocytes; type: cell-based; conditions: normal human epidermal keratinocytes
Excerpt: Transglutaminase K, TGK, and filaggrin are two protein markers of epidermal differentiation involved in arrangement of the keratin filaments and formation of the envelope of the stratum corneum.

[2] = test system: HSPB1, heat shock protein beta-1; test: RT-qPCR expression of HSPB1 in keratinocytes; type: cell-based, human; conditions: 10 μM
Procedure: The expression of the specific markers was evaluated by RT-qPCR (reverse transcription quantitative polymerase chain reaction) on messenger RNAs extracted from the cell lawns from each treatment. The transcriptomic profile contains 64 genes selected for their importance in keratinocyte differentiation. The PCR reactions (polymerase chain reactions) were carried out by quantitative PCR with the “Light Cycler” system (Roche Molecular System Inc.) according to the procedures recommended by the supplier. Normal human epidermal keratinocytes were incubated in the presence of compound 1 or a reference with calcium chloride. The expression of the specific markers was evaluated by RT-qPCR on the messenger RNAs extracted from the cell lawns from each treatment.

[3] = Melanocyte, NDP-MSH stimulated B16, 72 h, Table 2, read-out: Standardized data Inhibition (%) (melanin)
[4] = Melanocyte, comparison with 2 reference molecules, Table 3, read-out: Standardized data Inhibition (%) (melanin)

Oc1ccccc1CCOc1ccc(F)cc1 [Compound 1, 2-[2-(4-fluoro-phenoxy)-ethyl]-phenol]
Depigmenting effect (inhibition of melanin synthesis), in words ([1]; 30 μM and 100 μM): clear inhibitory effect
Depigmenting effectiveness compared with the two reference products ([1]; 30 μM and 100 μM, versus rucinol and [869743-37-3]): slightly more effective than the two reference products used
inhibition at 10 µM ([1]; Melanocyte, 10 μM, NDP-MSH stimulated B16, 72 h, Table 2, read-out: Standardized data Inhibition (%) (melanin)): 0%
inhibition at 30 µM [1, 3]: 93%
inhibition at 30 µM [1, 4]: 98%
inhibition at 100 µM [1, 3]: 112%
inhibition at 100 µM [1, 4]: 124%
Collagen I in the papillary dermis (collagen I): clear overexpression
Viability (MTT) % stimulated control (B16 melanocytes; 10 μM, B16, 72 h, Table 2): 83%
Viability (MTT) % stimulated control (B16 melanocytes; 30 μM, B16, 72 h, Table 2): 86%
Viability (MTT) % stimulated control (B16 melanocytes; 30 μM, comparison with 2 reference molecules, Table 3): 85%
Viability (MTT) % stimulated control (B16 melanocytes; 100 μM, B16, 72 h, Table 2): 22%
Viability (MTT) % stimulated control (B16 melanocytes; 100 μM, comparison with 2 reference molecules, Table 3): 13%
Protein expression of TGK (Transglutaminase K, TGK): concentration-dependent stimulation of protein expression
Expression of the stress protein HSPB1 [2]: inhibition of expression
